Assay results published in patent publication US20250213530A1 (GH RESEARCH IRELAND LIMITED, priority 2022, published 2025).

Assays:
[1] = system: patient with postpartum depression (PPD); assay: Clinical trial of inhaled 5-MeO-DMT (IDR, 6 mg then 12 mg), MADRS; assay type: in vivo, human; settings: one PPD patient; for Total MADRS improvement / Total MADRS score: baseline 29
Text: (§1) The patient completed all planned visit days.

[2] = system: patient with postpartum depression (PPD); assay: Clinical trial of inhaled 5-MeO-DMT, safety and tolerability; assay type: in vivo, human; settings: one PPD patient
Text: as §1

[3] = Pharmacokinetics after inhalation of 5-MeO-DMT, LC-MS/MS
[4] = system: patient with postpartum depression (PPD); assay: Clinical trial of inhaled 5-MeO-DMT (IDR, 6 mg then 12 mg), BPRS; assay type: in vivo, human; settings: one PPD patient, baseline 6
Text: as §1

[5] = system: patient with postpartum depression (PPD); assay: Clinical trial of inhaled 5-MeO-DMT (IDR, 6 mg then 12 mg), Barkin Index of Maternal Functioning (BIMF); assay type: in vivo, human; settings: one PPD patient
Text: Maternal functioning can, for instance, be assessed using the Barkin Index of Maternal Functioning (BIMF). This index was designed to measure functioning in the year after childbirth. The BIMF is a 20-item self-report measure of functioning. Each item is assigned a score between 0 and 6 so that the maximum total score is 120. The higher the score, the better maternal functioning is rated.
The BIMF identifies the key functional domains of a mother during the postnatal period as: self-care, infant care, mother-child interaction, psychological wellbeing of the mother, social support, management, and adjustment.
as §1

Question: For `COc1ccc2[nH]cc(CCN(C)C)c2c1` [5-MeO-DMT], which “standard criteria for MADRS remission (MADRS total score equal or less than 10)” value [1] is on record?
Answer: The value was “fulfilled”.

Question: What about the “standard criteria for MADRS response (at least 50% improvement from baseline)” value [1] of the same molecule?
Answer: The value was “fulfilled”.

Question: What about the “Total MADRS improvement” value ([1]; 2 hr) of the same molecule?
Answer: Its value is 24.

Question: And the “Total MADRS score” value ([1]; 2 hr)?
Answer: The value was 5.

Question: What about the “Total MADRS improvement” value ([1]; Day 1) of the same molecule?
Answer: The value was 29.

Question: What about the “Total MADRS score” value ([1]; Day 1) of the same molecule?
Answer: Its value is 0.

Question: What about the “Total MADRS improvement” value ([1]; Day 7) of the same molecule?
Answer: Its value is 28.

Question: And the “Total MADRS score” value ([1]; Day 7)?
Answer: Its value is 1.

Question: What about the “time to clinical remission after administration” value ([1]; IDR 6 mg then 12 mg) of the same molecule?
Answer: The value was ≤ 2 h.

Question: And the “ECG (at 3 hours), safety laboratory analyses (at 7 days), CADSS (at 3 hours, 1 day and 7 days)” value [2]?
Answer: Its value is “unremarkable”.

Question: And the “reported adverse events (cramping left abdominal pain and headache, both on Day 0)” value [2]?
Answer: The value was “mild, short-lasting and resolved spontaneously”.

Question: And the “tolerability of the inhalation procedure” value [2]?
Answer: Its value is “well tolerated with no inhalation-related adverse events”.

Question: And the “changes in vital parameters” value ([2]; shortly after administration, no other noteworthy changes)?
Answer: Its value is “temporary, clinically non-relevant increase in heart rate and blood pressure”.

Question: What about the “plasma concentration as % of Cmax” value ([3]; 10 minutes after administration, whole dose range tested (6 mg, 12 mg, 18 mg)) of the same molecule?
Answer: Its value is ≤ 10 % of Cmax.

Question: And the “plasma concentration as % of Cmax” value ([3]; after 2 hours, whole dose range tested (6 mg, 12 mg, 18 mg))?
Answer: Its value is ≤ 1 % of Cmax.

Question: And the “detectability in the plasma” value ([3]; after 3 hours, whole dose range tested (6 mg, 12 mg, 18 mg))?
Answer: Its value is “no longer detectable”.

Question: What about the “pharmacokinetic measurements, uptitration dosing schemes” value ([3]; compared with the single dose results) of the same molecule?
Answer: The value was “Substantially similar results”.

Question: And the “accumulation upon repeated administration” value ([3]; repeated administration within a time frame of 1 to 4 hours)?
Answer: Its value is “No accumulation”.

Question: And the “BPRS Tension improvement” value ([4]; Day 1)?
Answer: Its value is 5.

Question: What about the “BPRS Tension improvement” value ([4]; Discharge) of the same molecule?
Answer: The value was 5.

Question: What about the “BIMF item 19 (As time goes on, I am getting better at taking care of my baby) score” value ([5]; Day 7, Day 0 score 0) of the same molecule?
Answer: Its value is 1.

Question: And the “BIMF item 16 (I worry about how other people judge me (as a mother)) score” value ([5]; Day 7, Day 0 score 3)?
Answer: The value was 5.

Question: And the “BIMF item 13 (I am taking good care of my physical needs) score” value ([5]; Day 7, Day 0 score 4)?
Answer: The value was 5.

Question: What about the “BIMF item 5 (I am able to relax and enjoy time with my baby) score” value ([5]; Day 7, Day 0 score 5) of the same molecule?
Answer: Its value is 6.

Question: And the “BIMF item 9 (I am getting enough encouragement from other people) score” value ([5]; Day 7, Day 0 score 5)?
Answer: Its value is 6.

Question: And the “BIMF item 10 (I trust my own feelings (instincts) when it comes to taking care of my baby) score” value ([5]; Day 7, Day 0 score 5)?
Answer: The value was 6.

Question: And the “BIMF item 11 (I take a little time each week to do something for myself) score” value ([5]; Day 7, Day 0 score 5)?
Answer: The value was 6.

Question: What about the “BIMF item 17 (I am able to take care of my baby and my other responsibilities) score” value ([5]; Day 7, Day 0 score 5) of the same molecule?
Answer: The value was 5.

Question: And the “BIMF functional domain Adjustment score” value ([5]; Day 7, Day 0 score 5, maximum possible 12)?
Answer: Its value is 6.

Question: What about the “BIMF item 3 (I am comfortable with the way I've chosen to feed my baby) score” value ([5]; Day 7, Day 0 score 6) of the same molecule?
Answer: The value was 6.

Question: What about the “BIMF item 6 (There are people in my life that I can trust to care for my baby when I need a break) score” value ([5]; Day 7, Day 0 score 6) of the same molecule?
Answer: Its value is 6.

Question: And the “BIMF item 8 (I am getting enough adult interaction) score” value ([5]; Day 7, Day 0 score 6)?
Answer: The value was 6.

Question: And the “BIMF item 12 (I am taking good care of my baby's physical needs) score” value ([5]; Day 7, Day 0 score 6)?
Answer: The value was 6.

Question: And the “BIMF item 14 (I make good decisions about my baby's health and well being) score” value ([5]; Day 7, Day 0 score 6)?
Answer: Its value is 6.

Question: And the “BIMF item 20 (I am satisfied with the job I am doing as a new mother) score” value ([5]; Day 7, Day 0 score 6)?
Answer: Its value is 5.

Question: And the “BIMF functional domain Self Care score” value ([5]; Day 7, Day 0 score 9, maximum possible 18)?
Answer: The value was 13.

Question: And the “BIMF functional domain Infant Care score” value ([5]; Day 7, Day 0 score 12, maximum possible 12)?
Answer: Its value is 12.

Question: What about the “BIMF functional domain Mother-Child Interaction score” value ([5]; Day 7, Day 0 score 15, maximum possible 18) of the same molecule?
Answer: The value was 17.

Question: What about the “BIMF functional domain Social Support score” value ([5]; Day 7, Day 0 score 17, maximum possible 18) of the same molecule?
Answer: The value was 18.

Question: And the “BIMF functional domain Management score” value ([5]; Day 7, Day 0 score 28, maximum possible 36)?
Answer: Its value is 33.

Question: What about the “BIMF functional domain Psychological Well-being score” value ([5]; Day 7, Day 0 score 44, maximum possible 60) of the same molecule?
Answer: The value was 53.

Question: What about the “BIMF total score improvement” value ([5]; Day 7, from 92 to 105) of the same molecule?
Answer: Its value is 14%.

Question: What about the “BIMF TOTAL Δ (Day 7)” value ([5]; Day 7 vs Day 0) of the same molecule?
Answer: Its value is 13.

Question: What about the “BIMF functional domain Adjustment % Improvement” value ([5]; Day 7 vs Day 0) of the same molecule?
Answer: The value was 20.00%.

Question: What about the “BIMF functional domain Infant Care % Improvement” value ([5]; Day 7 vs Day 0) of the same molecule?
Answer: Its value is 0.00%.

Question: And the “BIMF functional domain Management % Improvement” value ([5]; Day 7 vs Day 0)?
Answer: Its value is 18%.

Question: What about the “BIMF functional domain Self Care % Improvement” value ([5]; Day 7 vs Day 0) of the same molecule?
Answer: Its value is 44%.

Question: And the “BIMF item 3 (I am comfortable with the way I've chosen to feed my baby) Δ (Day 7)” value ([5]; Day 7 vs Day 0)?
Answer: Its value is 0.

Question: And the “BIMF item 5 (I am able to relax and enjoy time with my baby) Δ (Day 7)” value ([5]; Day 7 vs Day 0)?
Answer: The value was 1.

Question: What about the “BIMF item 6 (There are people in my life that I can trust to care for my baby when I need a break) Δ (Day 7)” value ([5]; Day 7 vs Day 0) of the same molecule?
Answer: The value was 0.

Question: What about the “BIMF item 8 (I am getting enough adult interaction) Δ (Day 7)” value ([5]; Day 7 vs Day 0) of the same molecule?
Answer: The value was 0.

Question: And the “BIMF item 9 (I am getting enough encouragement from other people) Δ (Day 7)” value ([5]; Day 7 vs Day 0)?
Answer: Its value is 1.

Question: And the “BIMF item 10 (I trust my own feelings (instincts) when it comes to taking care of my baby) Δ (Day 7)” value ([5]; Day 7 vs Day 0)?
Answer: Its value is 1.

Question: And the “BIMF item 11 (I take a little time each week to do something for myself) Δ (Day 7)” value ([5]; Day 7 vs Day 0)?
Answer: Its value is 1.

Question: And the “BIMF item 12 (I am taking good care of my baby's physical needs) Δ (Day 7)” value ([5]; Day 7 vs Day 0)?
Answer: Its value is 0.

Question: What about the “BIMF item 13 (I am taking good care of my physical needs) Δ (Day 7)” value ([5]; Day 7 vs Day 0) of the same molecule?
Answer: The value was 1.

Question: What about the “BIMF item 14 (I make good decisions about my baby's health and well being) Δ (Day 7)” value ([5]; Day 7 vs Day 0) of the same molecule?
Answer: Its value is 0.

Question: And the “BIMF item 17 (I am able to take care of my baby and my other responsibilities) Δ (Day 7)” value ([5]; Day 7 vs Day 0)?
Answer: The value was 0.

Question: What about the “BIMF item 19 (As time goes on, I am getting better at taking care of my baby) Δ (Day 7)” value ([5]; Day 7 vs Day 0) of the same molecule?
Answer: Its value is 1.

Question: And the “BIMF item 20 (I am satisfied with the job I am doing as a new mother) Δ (Day 7)” value ([5]; Day 7 vs Day 0)?
Answer: The value was −1.
